Measured values taken from ChEMBL document CHEMBL3137667, “[Drug-induced liver injury; fourteenth updated edition of the bibliographic database of liver injuries and related drugs]” (Gastroenterol Clin Biol, 2004).

What was measured:
[1] = human
[2] = human; remark: listed apart in the source
[3] = human; remark: listed apart in the source
[4] = human; remark: listed apart in the source
[5] = human, serum, 4383 h
[6] = human; remark: listed apart in the source
[7] = human; remark: listed apart in the source
[8] = human; remark: listed apart in the source
[9] = human; remark: listed apart in the source
[10] = human; remark: listed apart in the source
[11] = human; remark: listed apart in the source
[12] = human, serum
[13] = Highest frequency of acute liver toxicity observed during clinical trials, expressed as a percentage. [column '% AIGUE' in source]; settings: human
[14] = Highest frequency of moderate liver toxicity observed during clinical trials, expressed as a percentage. [column '% BIOL' in source]; settings: human
[15] = human, serum; remark: listed apart in the source
[16] = Times to onset, minimal and maximal, observed in the indexed observations. [column 'DELAI' in source]; settings: human
[17] = Presence of at least one case with successful reintroduction. [column 'REINT' in source]; settings: human
[18] = Comments (NB not yet translated). [column 'COMMENTAIRES' in source]; settings: human
[19] = Proposed mechanism(s) of liver damage. [column 'MEC' in source]; settings: human
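Wherever Hepatotoxicity (association with vascular disease) is given: count of indexed literature references reporting vascular liver injury in humans, e.g. peliosis hepatitis, hepatic veno-occlusive disease or Budd-Chiari syndrome.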
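Wherever Hepatotoxicity (benign tumour) is given: value is a count of indexed literature references citing a benign tumour confirmed by histopathology.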
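Wherever Hepatotoxicity (choleostasis) is given: human cholestatic liver injury, shown by histopathology or by peak ALT or AST elevation over alkaline phosphatase ratio below 2, value counts indexed literature reports.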
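Wherever Hepatotoxicity (chronic liver disease) is given: chronic liver injury confirmed by histopathology or persistently raised serum aminotransferase activity beyond 6 months, value given as the count of indexed literature references.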
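Wherever Hepatotoxicity (cirrhosis) is given: value is a count of indexed literature references reporting cirrhosis confirmed by histopathology.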
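Wherever Hepatotoxicity (cytolytic) is given: human cytolytic liver injury, shown by histopathology or by a ratio above 5 of peak ALT or AST elevation to alkaline phosphatase elevation, value counts indexed references.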
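Wherever Hepatotoxicity (granulomatous hepatitis) is given: value is a count of indexed literature references reporting granulomatous liver disease confirmed by histopathology.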
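Wherever Hepatotoxicity (malignant tumour) is given: malignant tumour confirmed by histopathology, value gives the count of indexed literature references reporting it.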
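Wherever Hepatotoxicity (severe hepatitis) is given: human clinical data: severe hepatitis, meaning potentially life-threatening liver failure or clinically observed cases, the value counts how many indexed literature references report it.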
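Wherever Hepatotoxicity (steatosis) is given: steatosis confirmed by histopathology, value is the count of indexed references.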

CC1(C)[C@H](C(=O)O)N2C(=O)C[C@H]2S1(=O)=O.CCN1CCN(C(=O)N[C@@H](C(=O)N[C@@H]2C(=O)N3C(C(=O)O)=C(CSc4nnnn4C)CS[C@H]23)c2ccc(O)cc2)C(=O)C1=O
Hepatotoxicity (cirrhosis) [1]: 0 | Hepatotoxicity (choleostasis) [2]: 0 | Hepatotoxicity (animal toxicity known) [3]: yes | Hepatotoxicity (granulomatous hepatitis) [4]: 0 | Hepatotoxicity (chronic liver disease) [5]: 0 | Hepatotoxicity (cytolytic) [6]: 0 | Hepatotoxicity (benign tumour) [7]: 0 | Hepatotoxicity (association with vascular disease) [8]: 0 | Hepatotoxicity (steatosis) [9]: 0 | Hepatotoxicity (malignant tumour) [10]: 0

Cc1cn([C@H]2CC[C@@H](CO)O2)c(=O)[nH]c1=O
Hepatotoxicity (cirrhosis) [1]: 0 | Hepatotoxicity (choleostasis) [2]: 0 | Hepatotoxicity (severe hepatitis) [11]: 0 | Hepatotoxicity (moderate) [12]: 1 | Hepatotoxicity (animal toxicity known) [3]: yes | Hepatotoxicity (acute) [13]: 0% | Hepatotoxicity (moderate) [14]: 30% | Hepatotoxicity (granulomatous hepatitis) [4]: 0 | Hepatotoxicity (chronic liver disease) [5]: 0 | Hepatotoxicity (cytolytic) [6]: 0 | Hepatotoxicity (benign tumour) [7]: 0 | Hepatotoxicity (association with vascular disease) [8]: 0 | Hepatotoxicity (steatosis) [9]: 0 | Hepatotoxicity (acute) [15]: 0 | Hepatotoxicity (malignant tumour) [10]: 0

CN(C)[C@@H]1C(O)=C(C(N)=O)C(=O)[C@@]2(O)C(O)=C3C(=O)c4c(O)ccc(Cl)c4[C@@](C)(O)[C@H]3C[C@@H]12 [CHLORTETRACYCLINE]
Hepatotoxicity (cirrhosis) [1]: 0 | Hepatotoxicity (choleostasis) [2]: 1 | Hepatotoxicity (severe hepatitis) [11]: 0 | Hepatotoxicity (moderate) [12]: 0 | Hepatotoxicity (animal toxicity known) [3]: yes | Hepatotoxicity (acute) [13]: 0% | Hepatotoxicity (moderate) [14]: 0% | Hepatotoxicity (granulomatous hepatitis) [4]: 0 | Hepatotoxicity (chronic liver disease) [5]: 0 | Hepatotoxicity (cytolytic) [6]: 1 | Hepatotoxicity (benign tumour) [7]: 0 | Hepatotoxicity (association with vascular disease) [8]: 0 | Hepatotoxicity (steatosis) [9]: 3 | Hepatotoxicity (acute) [15]: 4 | Hepatotoxicity (malignant tumour) [10]: 0

CC(C)/N=c1\cc2n(-c3ccc(Cl)cc3)c3ccccc3nc-2cc1Nc1ccc(Cl)cc1 [CLOFAZIMINE]
Hepatotoxicity (cirrhosis) [1]: 0 | Hepatotoxicity (choleostasis) [2]: 1 | Hepatotoxicity (severe hepatitis) [11]: 0 | Hepatotoxicity (moderate) [12]: 2 | Hepatotoxicity (animal toxicity known) [3]: yes | Hepatotoxicity (acute) [13]: 5.6% | Hepatotoxicity (moderate) [14]: 16% | Hepatotoxicity (granulomatous hepatitis) [4]: 0 | Hepatotoxicity (chronic liver disease) [5]: 0 | Hepatotoxicity (cytolytic) [6]: 0 | Hepatotoxicity (benign tumour) [7]: 0 | Hepatotoxicity (association with vascular disease) [8]: 0 | Hepatotoxicity (steatosis) [9]: 0 | Hepatotoxicity (acute) [15]: 1 | Hepatotoxicity (malignant tumour) [10]: 0

N#CN [CYANAMIDE]
Hepatotoxicity (cirrhosis) [1]: 2 | Hepatotoxicity (choleostasis) [2]: 2 | Hepatotoxicity (severe hepatitis) [11]: 0 | Hepatotoxicity (moderate) [12]: 0 | Hepatotoxicity (animal toxicity known) [3]: yes | Hepatotoxicity (acute) [13]: 0% | Hepatotoxicity (moderate) [14]: 0% | Hepatotoxicity (granulomatous hepatitis) [4]: 0 | Hepatotoxicity (chronic liver disease) [5]: 11 | Hepatotoxicity (cytolytic) [6]: 0 | Hepatotoxicity (benign tumour) [7]: 0 | Hepatotoxicity (association with vascular disease) [8]: 0 | Hepatotoxicity (steatosis) [9]: 0 | Hepatotoxicity (acute) [15]: 2 | Hepatotoxicity (malignant tumour) [10]: 0

NC[C@@H]1CC[C@@H](N)[C@@H](O[C@H]2[C@H](O)[C@@H](O[C@H]3O[C@H](CO)[C@@H](O)[C@H](N)[C@H]3O)[C@H](N)C[C@@H]2N)O1 [DIBEKACIN]
Hepatotoxicity (cirrhosis) [1]: 0 | Hepatotoxicity (choleostasis) [2]: 0 | Hepatotoxicity (severe hepatitis) [11]: 0 | Hepatotoxicity (moderate) [12]: 1 | Hepatotoxicity (animal toxicity known) [3]: yes | Hepatotoxicity (acute) [13]: 0% | Hepatotoxicity (moderate) [14]: 13.7% | Hepatotoxicity (granulomatous hepatitis) [4]: 0 | Hepatotoxicity (chronic liver disease) [5]: 0 | Hepatotoxicity (cytolytic) [6]: 0 | Hepatotoxicity (benign tumour) [7]: 0 | Hepatotoxicity (association with vascular disease) [8]: 0 | Hepatotoxicity (steatosis) [9]: 0 | Hepatotoxicity (acute) [15]: 0 | Hepatotoxicity (malignant tumour) [10]: 0

C[C@]12CC[C@@H]3c4ccc(O)cc4CC[C@H]3[C@@H]1CC[C@@H]2O [ESTRADIOL]
Hepatotoxicity (cirrhosis) [1]: 0 | Hepatotoxicity (choleostasis) [2]: 1 | Hepatotoxicity (severe hepatitis) [11]: 0 | Hepatotoxicity (moderate) [12]: 0 | Hepatotoxicity (animal toxicity known) [3]: yes | Hepatotoxicity (acute) [13]: 0% | Hepatotoxicity (moderate) [14]: 0% | Hepatotoxicity (granulomatous hepatitis) [4]: 0 | Hepatotoxicity (chronic liver disease) [5]: 0 | Hepatotoxicity (cytolytic) [6]: 0 | Hepatotoxicity (benign tumour) [7]: 0 | Hepatotoxicity (association with vascular disease) [8]: 0 | Hepatotoxicity (steatosis) [9]: 0 | Hepatotoxicity (acute) [15]: 1 | Hepatotoxicity (malignant tumour) [10]: 0

CC(=O)O[C@]1(C(C)=O)CC[C@H]2[C@@H]3C=C(C)C4=CC(=O)CC[C@]4(C)[C@H]3CC[C@@]21C [MEGESTROL ACETATE]
Hepatotoxicity (cirrhosis) [1]: 0 | Hepatotoxicity (choleostasis) [2]: 0 | Hepatotoxicity (severe hepatitis) [11]: 0 | Hepatotoxicity (moderate) [12]: 4 | Hepatotoxicity (animal toxicity known) [3]: yes | Hepatotoxicity (acute) [13]: 2.7% | Hepatotoxicity (moderate) [14]: 12.8% | Hepatotoxicity (granulomatous hepatitis) [4]: 0 | Hepatotoxicity (chronic liver disease) [5]: 0 | Hepatotoxicity (cytolytic) [6]: 1 | Hepatotoxicity (benign tumour) [7]: 0 | Hepatotoxicity (association with vascular disease) [8]: 0 | Hepatotoxicity (steatosis) [9]: 0 | Hepatotoxicity (acute) [15]: 1 | Hepatotoxicity (malignant tumour) [10]: 0

O=C1Nc2ccc(Cl)cc2C(c2ccccc2)=NC1O (stereo unspecified) [OXAZEPAM]
Hepatotoxicity (cirrhosis) [1]: 0 | Hepatotoxicity (choleostasis) ([2]; Liver): 0 | Hepatotoxicity (severe hepatitis) ([11]; Liver): 0 | Hepatotoxicity (moderate) [12]: 0 | Hepatotoxicity (animal toxicity known) [3]: yes | Hepatotoxicity (acute) ([13]; Liver): 0% | Hepatotoxicity (moderate) ([14]; Liver): 0% | Hepatotoxicity (granulomatous hepatitis) ([4]; Liver): 0 | Hepatotoxicity (chronic liver disease) [5]: 0 | Hepatotoxicity (cytolytic) ([6]; Liver): 0 | Hepatotoxicity (benign tumour) [7]: 0 | Hepatotoxicity (association with vascular disease) [8]: 1 | Hepatotoxicity (steatosis) [9]: 0 | Hepatotoxicity (acute) [15]: 0 | Hepatotoxicity (malignant tumour) [10]: 0

Cc1[nH]cnc1CSCCNc1ncc(Cc2ccc3c(c2)OCO3)c(=O)[nH]1 [OXMETIDINE]
Hepatotoxicity (cirrhosis) [1]: 0 | Hepatotoxicity (choleostasis) [2]: 0 | Hepatotoxicity (severe hepatitis) [11]: 0 | Hepatotoxicity (moderate) [12]: 1 | Hepatotoxicity (animal toxicity known) [3]: yes | Hepatotoxicity (acute) [13]: 0.1% | Hepatotoxicity (moderate) [14]: 0% | Hepatotoxicity (granulomatous hepatitis) [4]: 0 | Hepatotoxicity (chronic liver disease) [5]: 0 | Hepatotoxicity (cytolytic) [6]: 0 | Hepatotoxicity (benign tumour) [7]: 0 | Hepatotoxicity (association with vascular disease) [8]: 0 | Hepatotoxicity (steatosis) [9]: 0 | Hepatotoxicity (acute) [15]: 1 | Hepatotoxicity (malignant tumour) [10]: 0

CCOC(=O)C1(c2ccccc2)CCN(CCC(O)c2ccccc2)CC1 (stereo unspecified) [PHENOPERIDINE]
Hepatotoxicity (cirrhosis) [1]: 0 | Hepatotoxicity (choleostasis) [2]: 1 | Hepatotoxicity (severe hepatitis) [11]: 0 | Hepatotoxicity (moderate) [12]: 0 | Hepatotoxicity (animal toxicity known) [3]: yes | Hepatotoxicity (acute) [13]: 0% | Hepatotoxicity (moderate) [14]: 0% | Hepatotoxicity (granulomatous hepatitis) [4]: 0 | Hepatotoxicity (chronic liver disease) [5]: 0 | Hepatotoxicity (cytolytic) [6]: 0 | Hepatotoxicity (benign tumour) [7]: 0 | Hepatotoxicity (association with vascular disease) [8]: 0 | Hepatotoxicity (steatosis) [9]: 0 | Hepatotoxicity (acute) [15]: 1 | Hepatotoxicity (malignant tumour) [10]: 0

INTERFERON ALFA-2B
Hepatotoxicity (cirrhosis) [1]: 0 | Hepatotoxicity (choleostasis) [2]: 2 | Hepatotoxicity (severe hepatitis) [11]: 7 | Hepatotoxicity (moderate) [12]: 52 | Hepatotoxicity (acute) [13]: 0% | Hepatotoxicity (moderate) [14]: 87.5% | Hepatotoxicity (time to onset) [16]: 1 week - 1 year | Hepatotoxicity (successful reintroduction) [17]: yes | Hepatotoxicity (granulomatous hepatitis) [4]: 3 | Hepatotoxicity (chronic liver disease) [5]: 0 | Hepatotoxicity (cytolytic) [6]: 8 | Hepatotoxicity (benign tumour) [7]: 0 | Hepatotoxicity (association with vascular disease) [8]: 0 | Hepatotoxicity (steatosis) [9]: 0 | Hepatotoxicity (comment) [18]: AGGRAVATION_CBP/HEPATITE_AUTOIMMUNE/HVB/HVC_CHRONIQUE CHOLANGITE | Hepatotoxicity (acute) [15]: 13 | Hepatotoxicity (malignant tumour) [10]: 0 | Hepatotoxicity (mechanism) [19]: Dose-dependant

INTERFERON BETA
Hepatotoxicity (cirrhosis) [1]: 0 | Hepatotoxicity (choleostasis) [2]: 0 | Hepatotoxicity (severe hepatitis) [11]: 1 | Hepatotoxicity (moderate) [12]: 33 | Hepatotoxicity (acute) [13]: 31.2% | Hepatotoxicity (moderate) [14]: 100% | Hepatotoxicity (time to onset) [16]: 3 days - 2 years | Hepatotoxicity (successful reintroduction) [17]: yes | Hepatotoxicity (granulomatous hepatitis) [4]: 0 | Hepatotoxicity (chronic liver disease) [5]: 0 | Hepatotoxicity (cytolytic) [6]: 5 | Hepatotoxicity (benign tumour) [7]: 0 | Hepatotoxicity (association with vascular disease) [8]: 0 | Hepatotoxicity (steatosis) [9]: 0 | Hepatotoxicity (comment) [18]: AC_ANTI-N/-ML | Hepatotoxicity (acute) [15]: 10 | Hepatotoxicity (malignant tumour) [10]: 0 | Hepatotoxicity (mechanism) [19]: Allergic, Dose-dependant
